Experimental data published in PubChem BioAssay (NCI).
Values joined by “and” are separate entries in the source; they are usually repeats but may differ in a detail not shown here. Equal entries are not always repeated.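 Grown in 96-well plates, cells were treated for 48 hours with each compound at five concentrations. Insufficient inhibition: endpoint recorded as highest concentration tested. GI50 marks 50% less growth. TGI denotes the concentration required for complete inhibition of growth.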

Tests used:
Experiment in all cases: inhibition of tumour cell growth, NCI panel, 48 h
786-0 renal = test system: 786-0 renal
A498 renal = test system: A498 renal
A549 NSCLC = test system: A549 NSCLC
ACHN renal = test system: ACHN renal
BT-549 breast = test system: BT-549 breast
CAKI-1 renal = test system: CAKI-1 renal
CCRF-CEM leukemia = test system: CCRF-CEM leukemia
COLO 205 colon = test system: COLO 205 colon
DU-145 prostate = test system: DU-145 prostate
EKVX NSCLC = test system: EKVX NSCLC
HCC-2998 colon = test system: HCC-2998 colon
HCT-116 colon = test system: HCT-116 colon
HCT-15 colon = test system: HCT-15 colon
HL-60(TB) leukemia = test system: HL-60(TB) leukemia
HOP-62 NSCLC = test system: HOP-62 NSCLC
HOP-92 NSCLC = test system: HOP-92 NSCLC
HS 578T breast = test system: HS 578T breast
HT29 colon = test system: HT29 colon
IGROV1 ovarian = test system: IGROV1 ovarian
K-562 leukemia = test system: K-562 leukemia
KM12 colon = test system: KM12 colon
LOX IMVI melanoma = test system: LOX IMVI melanoma
M14 melanoma = test system: M14 melanoma
MALME-3M melanoma = test system: MALME-3M melanoma
MCF7 breast = test system: MCF7 breast
MDA-MB-231 breast = test system: MDA-MB-231 breast
MDA-MB-435 = test system: MDA-MB-435
MDA-N = test system: MDA-N
MOLT-4 leukemia = test system: MOLT-4 leukemia
NCI-H226 lung = test system: NCI-H226 lung
NCI-H23 lung = test system: NCI-H23 lung
NCI-H460 lung = test system: NCI-H460 lung
NCI-H522 lung = test system: NCI-H522 lung
NCI/ADR-RES ovarian = test system: NCI/ADR-RES ovarian
OVCAR-3 ovarian = test system: OVCAR-3 ovarian
OVCAR-4 ovarian = test system: OVCAR-4 ovarian
OVCAR-5 ovarian = test system: OVCAR-5 ovarian
OVCAR-8 ovarian = test system: OVCAR-8 ovarian
PC-3 prostate = test system: PC-3 prostate
RPMI-8226 leukemia = test system: RPMI-8226 leukemia
RXF 393 renal = test system: RXF 393 renal
SF-268 CNS = test system: SF-268 CNS
SF-295 CNS = test system: SF-295 CNS
SF-539 CNS = test system: SF-539 CNS
SK-MEL-2 melanoma = test system: SK-MEL-2 melanoma
SK-MEL-28 melanoma = test system: SK-MEL-28 melanoma
SK-MEL-5 melanoma = test system: SK-MEL-5 melanoma
SK-OV-3 ovarian = test system: SK-OV-3 ovarian
SN12C renal = test system: SN12C renal
SNB-19 CNS = test system: SNB-19 CNS
SNB-75 CNS = test system: SNB-75 CNS
SR leukemia = test system: SR leukemia
SW-620 colon = test system: SW-620 colon
TK-10 renal = test system: TK-10 renal
U251 CNS = test system: U251 CNS
UACC-257 melanoma = test system: UACC-257 melanoma
UACC-62 melanoma = test system: UACC-62 melanoma
UO-31 renal = test system: UO-31 renal
T-47D breast = test system: T-47D breast

Compound: CC(=O)OCC1OC(OC(C)(C)CC/C=C(\C)[C@@H]2C/C=C(\C)CC/C=C(\C)CC2)C(O)C(O)C1OC(C)=O (some centres not stated)
- TGI (786-0 renal): 96.8 µM and 58.8 µM
- GI50 (A498 renal): > 100 µM and 24.4 µM
- TGI (A498 renal): > 100 µM and 44.8 µM
- GI50 (A549 NSCLC): > 65.2 µM and 16.2 µM
- TGI (A549 NSCLC): > 100 µM and 36 µM
- GI50 (ACHN renal): > 65.1 µM and 13.8 µM
- TGI (ACHN renal): > 100 µM and 26.7 µM
- TGI (BT-549 breast): 88.6 µM and 34.8 µM
- GI50 (CAKI-1 renal): 58.6 µM and 18.7 µM
- TGI (CAKI-1 renal): > 100 µM and 35.3 µM
- TGI (CCRF-CEM leukemia): 20.8 µM and 67 µM
- GI50 (COLO 205 colon): 35.7 µM and 15.8 µM
- TGI (COLO 205 colon): 76.9 µM and 32.5 µM
- GI50 (DU-145 prostate): > 76.3 µM and 17 µM
- TGI (DU-145 prostate): > 100 µM and 32.1 µM
- GI50 (EKVX NSCLC): 43.6 µM and 19 µM
- TGI (EKVX NSCLC): > 100 µM and 37.3 µM
- GI50 (HCC-2998 colon): 69.8 µM and 17.9 µM
- TGI (HCC-2998 colon): > 100 µM and 35.9 µM
- TGI (HCT-116 colon): > 60.1 µM and 60.9 µM
- GI50 (HCT-15 colon): 49.4 µM and 14.2 µM
- TGI (HCT-15 colon): > 100 µM and 29.2 µM
- TGI (HL-60(TB) leukemia): 67.3 µM
- GI50 (HOP-62 NSCLC): > 82.7 µM and 16.8 µM
- TGI (HOP-62 NSCLC): > 100 µM and 30.4 µM
- GI50 (HOP-92 NSCLC): > 81.2 µM and 17.5 µM
- TGI (HOP-92 NSCLC): > 100 µM and 35 µM
- TGI (HS 578T breast): 30.5 µM
- TGI (HT29 colon): > 55.5 µM and 28.1 µM
- TGI (IGROV1 ovarian): > 79.1 µM and 32 µM
- TGI (K-562 leukemia): 61.4 µM and > 100 µM
- TGI (KM12 colon): > 59.7 µM and 36.8 µM
- TGI (LOX IMVI melanoma): 33.5 µM and 54.1 µM
- GI50 (M14 melanoma): 60 µM and 19.7 µM
- TGI (M14 melanoma): > 100 µM and 47.8 µM
- TGI (MALME-3M melanoma): 56.4 µM and 34.5 µM
- GI50 (MCF7 breast): 52 µM and 23.9 µM
- TGI (MCF7 breast): > 100 µM and 64.8 µM
- GI50 (MDA-MB-231 breast): > 61.2 µM and 18.9 µM
- TGI (MDA-MB-231 breast): > 100 µM and 38.6 µM
- TGI (MDA-MB-435): > 82.5 µM and 38.8 µM
- TGI (MDA-N): > 61.4 µM and 41.5 µM
- TGI (MOLT-4 leukemia): 49.1 µM
- TGI (NCI-H226 lung): > 100 µM and 16.2 µM
- GI50 (NCI-H23 lung): 46.2 µM and 12.7 µM
- TGI (NCI-H23 lung): > 100 µM and 25.3 µM
- TGI (NCI-H460 lung): 35.3 µM and 61.8 µM
- TGI (NCI-H522 lung): 28.8 µM and 37.4 µM
- GI50 (NCI/ADR-RES ovarian): 45.8 µM and 19.5 µM
- TGI (NCI/ADR-RES ovarian): > 100 µM and 38.7 µM
- GI50 (OVCAR-3 ovarian): 53.3 µM and 15.3 µM
- TGI (OVCAR-3 ovarian): > 100 µM and 28.6 µM
- GI50 (OVCAR-4 ovarian): > 58.7 µM and 16.2 µM
- TGI (OVCAR-4 ovarian): > 100 µM and 32.1 µM
- GI50 (OVCAR-5 ovarian): > 100 µM and 16.6 µM
- TGI (OVCAR-5 ovarian): > 100 µM and 34.1 µM
- TGI (OVCAR-8 ovarian): 82.3 µM and 43.5 µM
- GI50 (PC-3 prostate): 35.8 µM and 13.1 µM
- TGI (PC-3 prostate): > 94.8 µM and 25.8 µM
- TGI (RPMI-8226 leukemia): 70.6 µM and > 100 µM
- TGI (RXF 393 renal): > 100 µM
- TGI (SF-268 CNS): 98.7 µM and 38.3 µM
- TGI (SF-295 CNS): > 100 µM and 42.4 µM
- GI50 (SF-539 CNS): 32.6 µM and 13.5 µM
- TGI (SF-539 CNS): 82.9 µM and 33.9 µM
- GI50 (SK-MEL-2 melanoma): > 64.3 µM and 16.4 µM
- TGI (SK-MEL-2 melanoma): > 100 µM and 29.9 µM
- GI50 (SK-MEL-28 melanoma): > 100 µM and 21.7 µM
- TGI (SK-MEL-28 melanoma): > 100 µM and 40.6 µM
- TGI (SK-MEL-5 melanoma): > 83.7 µM and 34.6 µM
- GI50 (SK-OV-3 ovarian): > 100 µM and 18.5 µM
- TGI (SK-OV-3 ovarian): > 100 µM and 34 µM
- TGI (SN12C renal): > 94.1 µM and 41.2 µM
- GI50 (SNB-19 CNS): 61.5 µM and 12.5 µM
- TGI (SNB-19 CNS): > 100 µM and 25 µM
- TGI (SNB-75 CNS): > 100 µM and 31.8 µM
- GI50 (SR leukemia): 36.3 µM and > 100 µM
- TGI (SR leukemia): > 100 µM
- TGI (SW-620 colon): > 31.6 µM and 50.7 µM
- GI50 (TK-10 renal): > 100 µM and 20.6 µM
- TGI (TK-10 renal): > 100 µM and 38.3 µM
- GI50 (U251 CNS): 39.3 µM
- TGI (U251 CNS): > 100 µM
- GI50 (UACC-257 melanoma): 99.3 µM and 19.1 µM
- TGI (UACC-257 melanoma): > 100 µM and 38.5 µM
- GI50 (UACC-62 melanoma): > 92.8 µM and 15.3 µM
- TGI (UACC-62 melanoma): > 100 µM and 30.6 µM
- GI50 (UO-31 renal): 53.4 µM and 12.7 µM
- TGI (UO-31 renal): > 100 µM and 25.6 µM

Compound: Oc1ccc(/C=C/c2cc(O)cc(O)c2)cc1
- TGI (A498 renal): > 100 µM
- TGI (A549 NSCLC): > 100 µM
- TGI (ACHN renal): > 100 µM
- TGI (BT-549 breast): > 100 µM
- TGI (CAKI-1 renal): > 100 µM
- TGI (DU-145 prostate): 85.3 µM
- TGI (EKVX NSCLC): > 100 µM
- TGI (HCC-2998 colon): > 100 µM
- TGI (HCT-15 colon): > 100 µM
- TGI (HL-60(TB) leukemia): > 100 µM
- TGI (HOP-62 NSCLC): > 100 µM
- TGI (HOP-92 NSCLC): > 100 µM
- TGI (HT29 colon): > 100 µM
- TGI (KM12 colon): > 100 µM
- TGI (M14 melanoma): > 100 µM
- TGI (MCF7 breast): > 100 µM
- TGI (MDA-MB-231 breast): > 100 µM
- TGI (MDA-MB-435): > 100 µM
- TGI (MDA-N): > 100 µM
- TGI (MOLT-4 leukemia): > 100 µM
- TGI (NCI-H226 lung): > 100 µM
- TGI (NCI-H23 lung): > 100 µM
- TGI (NCI-H460 lung): > 100 µM
- TGI (NCI/ADR-RES ovarian): > 100 µM
- TGI (OVCAR-3 ovarian): > 100 µM
- TGI (OVCAR-4 ovarian): > 100 µM
- TGI (OVCAR-5 ovarian): > 100 µM
- TGI (OVCAR-8 ovarian): > 100 µM
- TGI (PC-3 prostate): > 100 µM
- TGI (RPMI-8226 leukemia): > 100 µM
- TGI (RXF 393 renal): > 100 µM
- TGI (SF-268 CNS): > 100 µM
- TGI (SF-295 CNS): > 100 µM
- TGI (SF-539 CNS): > 100 µM
- TGI (SK-MEL-2 melanoma): > 100 µM
- TGI (SK-MEL-28 melanoma): > 100 µM
- TGI (SK-OV-3 ovarian): > 100 µM
- TGI (SN12C renal): > 100 µM
- TGI (SNB-19 CNS): > 100 µM
- TGI (SNB-75 CNS): > 100 µM
- TGI (SR leukemia): > 100 µM
- TGI (SW-620 colon): > 100 µM
- TGI (T-47D breast): > 100 µM
- TGI (TK-10 renal): > 100 µM
- TGI (U251 CNS): > 100 µM
- TGI (UACC-257 melanoma): > 100 µM
- TGI (UACC-62 melanoma): > 100 µM
- TGI (UO-31 renal): > 100 µM
